Assay results published in patent US12091426B2, “Bifunctional degraders of hematopoietic progenitor kinase and therapeutic uses thereof” (Nurix Therapeutics, Inc., priority 2021, dated 2024).

Target: T1, HPK1 (Homo sapiens, UniProt Q92918)
T1 construct: A HiBiT tag was introduced by CRISPR on the N terminus of HPK1 in Jurkat cells; host or cells: Jurkat cells (ATCC TIB-152), monoclonal line with CRISPR knock-in of HiBiT at the endogenous HPK1 locus
Test: HPK1 Cellular HiBit Degradation Assay
Type: cell-based
Settings: HiBiT HPK1 Jurkat cells, 24 hrs; for DC50: concentration at which 50% of HPK1 was remaining, read-out: DC50 Category; for Dmax: Jurkat, maximum degradation vs DMSO vehicle control, read-out: Dmax Category
Experimental: HPK1 Cellular HiBit Degradation Assay
A HiBiT tag was introduced by CRISPR on the N terminus of HPK1 in Jurkat cells (ATCC® TIB-152) to allow quantitation of HPK1 protein levels in a monoclonal human cell line. Cells were plated at 1×10^6 cells/mL, 30 uL/well (3×10^4 cells/well) in complete RPMI 1640 (10% heat inactivated FBS, 1% L-glutamine) in 384-well assay plates (Corning, cat. no. 3570). HPK1 chimeric targeting molecules (CTMs) were added in an 11 point dilution series (11-point, 3.16-fold) with a final assay concentration range of 10 uM to 0.1 nM. The parental Jurkat cell line, with no HiBiT insertion, was included in the assay as a background control. Cell treated with a DMSO vehicle control was used to determine the maximum signal defining 100% HPK1 in the cell. Cells were incubated for 24 hrs at 37° C./5% CO2. Following incubation, 30 uL of complete Nano-Glo HiBiT Lytic Detection Reagent (Promega cat. no. N3040) was added. Cells were incubated for 10 min at room temperature and luminescence was read on an EnVision plate reader (Perkin Elmer, 0.1 sec per well). Viability was assessed in the same plate using Cell Titer Fluor (Promega) and read on an EnVision plate reader to ensure results were not the effect of cytotoxicity. Percent HPK1 remaining per sample was calculated as follows:
[formula] % HPK1 remaining values were plotted as a function of compound concentration and curves were fit using the Prism (GraphPad) equation “log(inhibitor) vs response−Variable slope (four parameters)”. Dmax values were calculated by identifying the lowest % remaining and subtracting from 100. DC50 values were determined by extrapolating from the curve the concentration at which 50% of HPK1 was remaining based on the DMSO control.
HiBiT HPK1 Jurkat cell lines were used to evaluate the total protein levels of HPK1 in a robust human cellular high throughput format. The level of HPK1 remaining following treatment with HPK1 CTMs is reported as Dmax (maximum degradation) achieved at 24 hours when compared to vehicle treated controls. […] These decreases were not a result of cytotoxicity measured by a viability assessment.

T1 sequence (Q92918 whole entry): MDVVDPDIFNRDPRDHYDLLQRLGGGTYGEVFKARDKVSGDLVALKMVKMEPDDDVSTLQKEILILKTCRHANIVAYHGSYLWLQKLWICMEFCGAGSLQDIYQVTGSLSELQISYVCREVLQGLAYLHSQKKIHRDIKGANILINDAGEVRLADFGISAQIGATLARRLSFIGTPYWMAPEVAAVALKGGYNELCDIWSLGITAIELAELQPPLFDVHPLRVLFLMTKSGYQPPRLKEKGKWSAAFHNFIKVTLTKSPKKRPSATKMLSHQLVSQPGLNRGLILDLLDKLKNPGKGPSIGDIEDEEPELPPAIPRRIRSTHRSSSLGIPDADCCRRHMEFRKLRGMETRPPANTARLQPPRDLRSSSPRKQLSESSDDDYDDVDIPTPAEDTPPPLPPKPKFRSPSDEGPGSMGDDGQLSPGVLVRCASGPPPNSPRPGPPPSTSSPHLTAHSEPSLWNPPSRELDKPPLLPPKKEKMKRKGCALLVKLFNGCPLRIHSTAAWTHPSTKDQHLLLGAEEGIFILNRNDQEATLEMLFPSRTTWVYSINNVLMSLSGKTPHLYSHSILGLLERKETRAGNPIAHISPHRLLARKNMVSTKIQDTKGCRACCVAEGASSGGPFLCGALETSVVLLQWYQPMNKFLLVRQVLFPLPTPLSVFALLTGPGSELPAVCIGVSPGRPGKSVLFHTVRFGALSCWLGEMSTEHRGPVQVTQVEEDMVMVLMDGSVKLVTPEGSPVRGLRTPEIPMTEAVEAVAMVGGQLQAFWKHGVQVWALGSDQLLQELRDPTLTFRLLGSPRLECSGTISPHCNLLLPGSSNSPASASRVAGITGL

SMILES | DC50 [µM] | Dmax [%]
CC(C)n1cnc2cc(-c3ccc4c(c3)N([C@H]3C[C@@H](N5CCCCC5)C3)C(=O)C43CCN(C(=O)C4(C)CCN(C(=O)[C@H]5CC[C@H](Oc6ccc(N7CCC(=O)NC7=O)cn6)CC5)CC4)CC3)nc(Nc3ccncc3F)c21 [Example 109, 1-(6-{[(1R,4R)-4-{4-[(6-{4-[(3-Fluoropyridin-4-yl)amino]-3-(propan-2-yl)-3H-imidazo[4,5-c]pyridin-6-yl}-2-oxo-1-[(1S,3S)-3-(piperidin-1-yl)cyclobutyl]-1,2-dihydrospiro[indole-3,4′-piperidin]-1′-yl)carbonyl]-4-methylpiperidine-1-carbonyl}cyclohexyl]oxy}pyridin-3-yl)-1,3-diazinane-2,4-dione] | 0.1 to 0.5 | 50 to 70
CC(C)n1cnc2cc(-c3ccc4c(c3)N([C@H]3C[C@@H](N5CCCCC5)C3)C(=O)C43CCN(C(=O)C4CCN(C(=O)C5CCN(c6ccc(C7CCC(=O)NC7=O)cn6)CC5)CC4)CC3)nc(Oc3ccccc3F)c21 (mixture of isomers) [Example 76, (3RS)-3-(6-{4-[4-({6-[4-(2-fluorophenoxy)-3-(propan-2-yl)-3H-imidazo[4,5-c]pyridin-6-yl]-2-oxo-1-[(1S,3S)-3-(piperidin-1-yl)cyclobutyl]-1,2-dihydrospiro[indole-3,4′-piperidin]-1′-yl}carbonyl)piperidine-1-carbonyl]piperidin-1-yl}pyridin-3-yl)piperidine-2,6-dione] | 0.1 to 0.5 | > 85
CC(C)n1cnc2cc(-c3ccc4c(c3)N([C@H]3C[C@@H](N5CCCCC5)C3)C(=O)C43CCN(C(=O)C[C@H]4CCCN(C(=O)C5CCN(c6ccc(C7CCC(=O)NC7=O)cn6)CC5)C4)CC3)nc(NC3CC3)c21 (mixture of isomers) [Example 296, (3RS)-3-(6-{4-[(3R)-3-(2-{6-[4-(cyclopropylamino)-3-(propan-2-yl)-3H-imidazo[4,5-c]pyridin-6-yl]-2-oxo-1-[(1S,3S)-3-(piperidin-1-yl)cyclobutyl]-1,2-dihydrospiro[indole-3,4′-piperidin]-1′-yl}-2-oxoethyl)piperidine-1-carbonyl]piperidin-1-yl}pyridin-3-yl)piperidine-2,6-dione] | 0.1 to 0.5 | 70 to 85
CC(C)n1cnc2cc(-c3ccc4c(c3)N([C@H]3C[C@@H](N5CCCCC5)C3)C(=O)C43CCN(C(=O)[C@]4(C)CCN(C(=O)C5CCN(c6ccc(C7CCC(=O)NC7=O)cc6F)CC5)C4)CC3)nc(NC3CC3)c21 (mixture of isomers) [Example 147, (3RS)-3-(4-{4-[(3R)-3-({6-[4-(cyclopropylamino)-3-(propan-2-yl)-3H-imidazo[4,5-c]pyridin-6-yl]-2-oxo-1-[(1S,3S)-3-(piperidin-1-yl)cyclobutyl]-1,2-dihydrospiro[indole-3,4′-piperidin]-1′-yl}carbonyl)-3-methylpyrrolidine-1-carbonyl]piperidin-1-yl}-3-fluorophenyl)piperidine-2,6-dione] | 0.1 to 0.5 | > 85
CC(C)n1cnc2cc(-c3ccc4c(c3)N([C@H]3C[C@@H](N5CCCCC5)C3)C(=O)C43CCN(C(=O)[C@@H]4CCN(C(=O)[C@H]5CC[C@H](Nc6ccc(C7CCC(=O)NC7=O)cn6)CC5)C4)CC3)nc(Nc3ccccc3F)c21 (mixture of isomers) [Example 6, (3RS)-3-(6-{1[(1R,4R)-4-[(3R)-3-[(6-{4-[(2-fluorophenyl)amino]-3-(propan-2-yl)-3H-imidazo[4,5-c]pyridin-6-yl}-2-oxo-1-[(1S,3S)-3-(piperidin-1-yl)cyclobutyl]-1,2-dihydrospiro[indole-3,4′-piperidin]-1′-yl)carbonyl]pyrrolidine-1-carbonyl]cyclohexyl]amino}pyridin-3-yl)piperidine-2,6-dione] | 0.1 to 0.5 | 70 to 85
CC(C)n1cnc2cc(-c3ccc4c(c3)N([C@H]3C[C@@H](N5CCC(F)CC5)C3)C(=O)C43CCN(C(=O)C4(C)CCN(C(=O)C5CCN(c6ccc(C7CCC(=O)NC7=O)cn6)CC5)CC4)CC3)nc(NC3CC3)c21 (mixture of isomers) [Example 208, (3RS)-3-(6-{4-[4-({6-[4-(cyclopropylamino)-3-(propan-2-yl)-3H-imidazo[4,5-c]pyridin-6-yl]-2-oxo-1-[(1S,3S)-3-(4-fluoropiperidin-1-yl)cyclobutyl]-1,2-dihydrospiro[indole-3,4′-piperidin]-1′-yl}carbonyl)-4-methylpiperidine-1-carbonyl]piperidin-1-yl}pyridin-3-yl)piperidine-2,6-dione] | 0.1 to 0.5 | 50 to 70

Now from value to compound:

DC50 [µM] | Dmax [%] | SMILES
< 0.1 | 70 to 85 | CC(C)n1cnc2cc(-c3ccc4c(c3)N([C@H]3C[C@@H](N5CCCCC5)C3)C(=O)C43CCN(C(=O)C4CCN(C(=O)C5CCN(c6ccc(C7CCC(=O)NC7=O)nc6)CC5)CC4)CC3)nc(Nc3ccncc3F)c21 (mixture of isomers) [Example 82, (3RS)-3-[5-(4-{4-[(6-{4-[(3-fluoropyridin-4-yl)amino]-3-(propan-2-yl)-3H-imidazo[4,5-c]pyridin-6-yl}-2-oxo-1-[(1S,3S)-3-(piperidin-1-yl)cyclobutyl]-1,2-dihydrospiro[indole-3,4′-piperidin]-1′-yl)carbonyl]piperidine-1-carbonyl}piperidin-1-yl)pyridin-2-yl]piperidine-2,6-dione]
< 0.1 | 70 to 85 | CC(C)n1cnc2cc(-c3ccc4c(c3)N([C@H]3C[C@@H](N5CCCCC5)C3)C(=O)C43CCN(C(=O)[C@@H]4CCN(C(=O)[C@H]5CC[C@H](Oc6ccc(N7CCC(=O)NC7=O)cn6)CC5)C4)CC3)nc(Nc3ccncc3F)c21 [Example 22, 1-(6-{[(1R,4R)-4-[(3R)-3-[(6-{4-[(3-fluoropyridin-4-yl)amino]-3-(propan-2-yl)-3H-imidazo[4,5-c]pyridin-6-yl}-2-oxo-1-[(1S,3S)-3-(piperidin-1-yl)cyclobutyl]-1,2-dihydrospiro[indole-3,4′-piperidin]-1′-yl)carbonyl]pyrrolidine-1-carbonyl]cyclohexyl]oxy}pyridin-3-yl)-1,3-diazinane-2,4-dione]
< 0.1 | 70 to 85 | CC(C)n1cnc2cc(-c3ccc4c(c3)N([C@H]3C[C@@H](N5CCCCC5)C3)C(=O)C43CCN(C(=O)C4CCN(C(=O)C5CCN(c6ccc(C7CCC(=O)NC7=O)cn6)CC5)C5(CC5)C4)CC3)nc(NC3CC3)c21 (mixture of isomers) [Example 269, (3RS)-3-(6-{4-[7-({6-[4-(cyclopropylamino)-3-(propan-2-yl)-3H-imidazo[4,5-c]pyridin-6-yl]-2-oxo-1-[(1S,3S)-3-(piperidin-1-yl)cyclobutyl]-1,2-dihydrospiro[indole-3,4′-piperidin]-1′-yl}carbonyl)-4-azaspiro[2.5]Octane-4-carbonyl]piperidin-1-yl}pyridin-3-yl)piperidine-2,6-dione]
< 0.1 | > 85 | CC(C)n1cnc2cc(-c3ccc4c(c3)N([C@H]3C[C@@H](N5CCCCC5)C3)C(=O)C43CCN(C(=O)[C@@H]4CCN(C(=O)[C@H]5CC[C@H](Oc6ccc(C7CCC(=O)NC7=O)cc6)CC5)C4)CC3)nc(NC3CC3)c21 (stereo partly drawn) [Example 13, 3-(4-{[(1R,4R)-4-[(3R)-3-({6-[4-(cyclopropylamino)-3-(propan-2-yl)-3H-imidazo[4,5-c]pyridin-6-yl]-2-oxo-1-[(1S,3S)-3-(piperidin-1-yl)cyclobutyl]-1,2-dihydrospiro[indole-3,4′-piperidin]-1′-yl}carbonyl)pyrrolidine-1-carbonyl]cyclohexyl]oxy}phenyl)piperidine-2,6-dione]
< 0.1 | > 85 | CC(C)n1cnc2cc(-c3ccc4c(c3)N([C@H]3C[C@@H](N5CCCCC5)C3)C(=O)C43CCN(C(=O)[C@@H]4CCN(C(=O)[C@H]5CC[C@H](Nc6ccc(C7CCC(=O)NC7=O)cc6)CC5)C4)CC3)nc(Nc3ccncc3F)c21 (stereo partly drawn) [Example 4, 3-(4-(((1R,4R)-4-((R)-3-(6-(4-((3-fluoropyridin-4-yl)amino)-3-isopropyl-3H-imidazo[4,5-c]pyridin-6-yl)-2-oxo-1-((1S,3S)-3-(piperidin-1-yl)cyclobutyl)spiro[indoline-3,4′-piperidine]-1′-carbonyl)pyrrolidine-1-carbonyl)cyclohexyl)amino)phenyl)piperidine-2,6-dione]
< 0.1 | > 85 | CC(C)Nc1nc(-c2ccc3c(c2)N([C@H]2C[C@@H](N4CCCCC4)C2)C(=O)C32CCN(C(=O)C3(C)CCN(C(=O)C4CCN(c5ccc(C6CCC(=O)NC6=O)cn5)CC4)CC3)CC2)cc2ncn(C(C)C)c12 (stereo partly drawn) [Example 166]
